From patent US7417045B2, “Heterocyclic substituted pyridine or phenyl compounds with CXCR3 antagonist activity” (Schering Corporation, priority 2005, dated 2008)

Target: T1, human CXCR3 (N-delta 4) (Homo sapiens, UniProt P49682)
T1 construct: CD8 leader (N); Flag tag; expressed in transfected cells; membranes
T1 sequence (P49682 5-368 limits assumed): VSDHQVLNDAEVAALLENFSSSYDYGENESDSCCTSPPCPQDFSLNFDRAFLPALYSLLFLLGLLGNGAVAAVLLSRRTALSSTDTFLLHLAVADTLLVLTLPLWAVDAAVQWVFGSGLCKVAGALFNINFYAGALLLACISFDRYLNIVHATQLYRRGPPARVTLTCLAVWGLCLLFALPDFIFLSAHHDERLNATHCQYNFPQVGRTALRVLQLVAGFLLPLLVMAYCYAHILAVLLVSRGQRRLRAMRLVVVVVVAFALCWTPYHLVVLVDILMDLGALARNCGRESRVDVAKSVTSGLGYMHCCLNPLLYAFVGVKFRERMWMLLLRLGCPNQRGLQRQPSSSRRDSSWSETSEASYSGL
Assay: Human CXCR3 (N-delta 4) Scintillation Proximity Assay (SPA), [125I] IP-10 binding
Details: IC50 rating; [125I] IP-10 displacement, Ba/F3-hCXCR3 (N-delta 4) membranes
Outline: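 Membranes from Ba/F3 cells stably expressing Flag-tagged human CXCR3 (N-delta 4), 2 μg per point, precoupled 1 h to WGA SPA beads in HEPES buffer with CaCl2, MgCl2, NaCl, 1.0% BSA. Compounds titrated with 25 pM [125I] IP-10; bound label counted after 3 hr at room temperature.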

| Structure (SMILES) | IC50 |
| --- | --- |
| CC[C@H]1CN(c2ncc(-c3n[nH]c(=O)[nH]3)cc2Cl)CCN1C1CCN(Cc2ccc(Cl)cc2F)CC1 [Compound 88] | < 0.025 µM |
| CC[C@H]1CN(c2ncc(-c3ncc[nH]3)cc2Cl)CCN1C1CCN(C(=O)c2ccc(C#CC(C)(C)O)cc2)CC1 [Compound 113] | 0.025 to 0.1 µM |
| CC[C@H]1CN(c2ncc(C3=NCCN3)cc2Cl)CCN1C1CCN(C(CO)c2ccc(Cl)cc2)CC1 (some centres unmarked) [Compound 15] | < 0.025 µM |
| CC[C@H]1CN(c2ncc(-c3ncc[nH]3)cc2Cl)CCN1C1CCN(Cc2ccc(C#CC(C)(C)O)cc2)CC1 [Compound 23] | < 0.025 µM |
| CC[C@H]1CN(c2ncc(-c3ncc[nH]3)cc2Cl)CCN1C1CCN(Cc2ccc(C#CC(C)(C)NS(N)(=O)=O)cc2)CC1 [Compound 114] | 0.025 to 0.1 µM |
| CC[C@H]1CN(c2ncc(-c3ncc[nH]3)cc2Cl)CCN1C1CCN([C@H](CO)c2ccc(Cl)cc2)CC1 [Compound 90] | < 0.025 µM |
| CC[C@H]1CN(c2ncc(-c3ncc[nH]3)cc2Cl)CCN1C1CCN(Cc2ccc(Cl)cc2C(C)(C)O)CC1 [Compound 31] | < 0.025 µM |
| CC[C@H]1CN(c2ncc(-c3ncc[nH]3)cc2Cl)CCN1C1CCN(Cc2ccc(C#CC(C)(C)C)cc2)CC1 [Compound 25] | < 0.025 µM |
| CC[C@H]1CN(c2ncc(C3=NC(C)CN3)cc2Cl)CCN1C1CCN(C(=O)c2ccc(Cl)cc2N)CC1 (some centres unmarked) [Compound 45] | < 0.025 µM |
| CC[C@H]1CN(c2ncc(-c3ncc[nH]3)cc2Cl)CCN1C1CCN(Cc2ccc(OC(F)(F)F)cc2)CC1 [Compound 13] | < 0.025 µM |
| CC[C@H]1CN(c2ncc(-c3ncc[nH]3)cc2Cl)CCN1C1CCN(Cc2ccc(C#CC(C)(C)NS(C)(=O)=O)cc2)CC1 [Compound 137] | > 0.1 µM |
| CC[C@H]1CN(c2ncc(-c3ncc[nH]3)cc2Cl)CCN1C1CCN(Cc2ccc(Br)cc2)CC1 [Compound 2] | < 0.025 µM |
| CC[C@H]1CN(c2ncc(C3=NCCN3)cc2Cl)CCN1C1CCN(Cc2ccc(C#CC(C)(C)NS(N)(=O)=O)cc2)CC1 [Compound 131] | 0.025 to 0.1 µM |
| CC[C@H]1CN(c2ncc(C3=NCCN3)cc2Cl)CCN1C1CCN(Cc2ccc(C#CC(C)(C)NS(=O)(=O)NC(=O)OC(C)(C)C)cc2)CC1 [Compound 147] | > 0.1 µM |
| CC[C@H]1CN(c2ncc(-c3ncc[nH]3)cc2Cl)CCN1C1(C)CCN(C(CO)c2ccc(Cl)cc2)CC1 (some centres unmarked) [Compound 38] | < 0.025 µM |
| CC[C@H]1CN(c2ncc(-c3ncc[nH]3)cc2Cl)CCN1C1CCN(C(=O)C2(c3ccc(Cl)cc3)CC2)CC1 [Compound 154] | > 0.1 µM |
| CC[C@H]1CN(c2ncc(-c3ncc[nH]3)cc2Cl)CCN1C1CCN(C(=O)c2ccc(Cl)cc2I)CC1 [Compound 86] | < 0.025 µM |
| CC[C@H]1CN(c2ncc(-c3ncc[nH]3)cc2Cl)CCN1C1CCN(C(=O)c2ccc(C#N)cc2)CC1 [Compound 74] | < 0.025 µM |
| CC[C@H]1CN(c2ncc(-c3ncc[nH]3)cc2Cl)CCN1C1CCN([C@H](C(=O)N(C)C)c2ccc(Cl)cc2)CC1 [Compound 150] | > 0.1 µM |
| CC[C@H]1CN(c2ncc(C3=NCCN3)cc2Cl)CCN1C1CCN(Cc2ccc(OC(F)(F)F)cc2)CC1 [Compound 12] | < 0.025 µM |
| CC[C@H]1CN(c2ncc(-c3ncc[nH]3)cc2Cl)CCN1C1CCN(Cc2ccc(-c3csnn3)cc2)CC1 [Compound 22] | < 0.025 µM |
| CC[C@H]1CN(c2ncc(C3=NCCN3)cc2Cl)CCN1C1CCN(Cc2ccc(C#CCOC)cc2)CC1 [Compound 34] | < 0.025 µM |
| CC[C@H]1CN(c2ncc(C3=NCCN3)cc2Cl)CCN1C1CCN(C(=O)c2ccc(Cl)cc2I)CC1 [Compound 85] | < 0.025 µM |
| CC[C@H]1CN(c2ncc(C3=NCCN3)cc2Cl)CCN1C1CCN(C(=O)c2ccc(Br)cc2)CC1 [Compound 56] | < 0.025 µM |
| CC[C@H]1CN(c2ncc(C3=NCCN3)cc2Cl)CCN1C1CCN(Cc2ccc(Cl)cc2C#N)CC1 [Compound 51] | < 0.025 µM |
| CC[C@H]1CN(c2ncc(-c3ncc[nH]3)cc2Cl)CCN1C1CCN(Cc2ccc(C#CCN(C)C)cc2)CC1 [Compound 100] | < 0.025 µM |
